Experimental data: paper doi:10.1101/2021.01.27.428399v1 (biorxiv, 2021)

Molecular target: T1, GluR0 (Synechocystis sp. PCC 6803, UniProt P73797)
T1 sequence (P73797 20-397): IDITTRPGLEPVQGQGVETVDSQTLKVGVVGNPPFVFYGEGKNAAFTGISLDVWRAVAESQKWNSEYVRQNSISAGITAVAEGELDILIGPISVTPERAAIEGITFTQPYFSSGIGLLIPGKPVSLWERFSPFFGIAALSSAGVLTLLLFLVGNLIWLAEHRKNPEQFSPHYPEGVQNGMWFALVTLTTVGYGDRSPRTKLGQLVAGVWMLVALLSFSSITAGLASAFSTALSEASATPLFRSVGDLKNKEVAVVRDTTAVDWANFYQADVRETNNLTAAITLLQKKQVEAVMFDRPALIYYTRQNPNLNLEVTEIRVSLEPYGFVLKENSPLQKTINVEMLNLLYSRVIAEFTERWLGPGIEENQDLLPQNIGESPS
Experiment: two-electrode voltage clamp, Xenopus oocytes
Format: cell-based

- EC50: 29.9 ± 5 µM
Compound: N[C@@H](CCC(=O)O)C(=O)O [L-glutamate]
